Here are results for 26 compounds from ChEMBL document CHEMBL3124894, “Lactam sulfonamides as potent inhibitors of the Kv1.5 potassium ion channel” (Bioorg Med Chem Lett, 2014).

The nature of series [1]: Lipophilicity, log D of the compound by chromatography. Type of series: physicochemical.
Series [2] concerns the target T1, Potassium voltage-gated channel subfamily A member 5 (Homo sapiens, UniProt P22460). As to the kind of experiment: Inhibition of human Kv1.5 ion channel expressed in CHO cells by patch clamp assay. Type of series: cell-based. (In general: In patch-clamp work, channel activity is measured electrically.)
The nature of series [3]: Intrinsic clearance in human liver microsomes assessed per mg protein. The class given is ADME. To be noted: read-out: CLH. A general note: Liver microsomes are vesicles of endoplasmic reticulum, rich in cytochrome P450 enzymes.
Series [4] in a line: Terminal half life in Beagle dog at 1 umol/kg, iv and 2 umol/kg, po. Type of series: ADME, organism-based, Canis lupus familiaris. The following applies: in vivo, read-out: beta t1/2 (converted).
Series [5] has as its system Oryctolagus cuniculus. The series can be described thus: Cardiotoxicity in New Zealand white rabbit assessed as QT interval at 0.1 to 1 umol/kg/min administered as infusion. Type of series: toxicity, organism-based. To be noted: in vivo, iv.
Series [6] deals with Oryctolagus cuniculus. The series can be described thus: Antiarrhythmic activity in New Zealand white rabbit assessed as unbound steady-state plasma concentration giving 20% change in atrium effective refractory period at 0.1 to 1 umol/kg/min administered as infusion. The class given is functional.
Series [7] is described as follows: Oral bioavailability in Sprague-Dawley rat at 6 umol/kg. The following applies: in vivo. The class given is ADME, organism-based.
Series [8] in a line: Oral bioavailability in Beagle dog at 2 umol/kg. The class given is ADME, organism-based, Canis lupus familiaris. To be noted: in vivo.
Series [9] can be described thus: Clearance in Beagle dog at 1 umol/kg, iv and 2 umol/kg, po. Type of series: ADME, organism-based, Canis lupus familiaris. The following applies: in vivo.
Series [10] in a line: Clearance in Sprague-Dawley rat at 2 umol/kg, iv and 6 umol/kg, po. Type of series: ADME, organism-based. To be noted: in vivo.
Series [11] can be described thus: Terminal half life in Sprague-Dawley rat at 2 umol/kg, iv and 6 umol/kg, po. To be noted: in vivo, read-out: beta t1/2 (converted). Type of series: ADME, organism-based.
Series [12] concerns Oryctolagus cuniculus. The series can be described thus: Toxicity in New Zealand white rabbit assessed as CNS-like side effects at 0.1 to 1 umol/kg/min administered as infusion. To be noted: in vivo, iv. Type of series: organism-based.
The target in series [13] is T1, Potassium voltage-gated channel subfamily A member 5. The series can be described thus: Inhibition of Kv1.5 ion channel (unknown origin) expressed in CHO cells by Rb(+) efflux assay. Type of series: cell-based.

SMILES strings stand for the structures.

T1 sequence (P22460 whole entry): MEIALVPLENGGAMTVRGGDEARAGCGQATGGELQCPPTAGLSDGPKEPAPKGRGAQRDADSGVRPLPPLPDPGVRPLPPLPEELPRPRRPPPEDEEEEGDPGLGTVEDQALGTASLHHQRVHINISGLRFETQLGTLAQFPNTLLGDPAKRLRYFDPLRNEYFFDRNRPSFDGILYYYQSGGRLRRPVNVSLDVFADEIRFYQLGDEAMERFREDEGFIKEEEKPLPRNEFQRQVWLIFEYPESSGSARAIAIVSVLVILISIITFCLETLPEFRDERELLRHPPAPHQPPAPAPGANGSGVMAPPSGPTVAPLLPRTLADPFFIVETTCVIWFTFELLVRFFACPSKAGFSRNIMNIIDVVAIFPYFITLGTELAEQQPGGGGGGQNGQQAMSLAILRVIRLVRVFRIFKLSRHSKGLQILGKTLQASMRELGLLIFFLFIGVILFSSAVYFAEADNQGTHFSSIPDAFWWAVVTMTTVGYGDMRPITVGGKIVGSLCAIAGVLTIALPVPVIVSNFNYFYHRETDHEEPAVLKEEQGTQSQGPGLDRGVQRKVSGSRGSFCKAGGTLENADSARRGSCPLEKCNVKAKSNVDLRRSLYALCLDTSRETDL

Usually chromatographic logD stands for lipophilicity estimated from chromatographic retention. Read a low chromatographic logD as lower lipophilicity. In general, IC50 refers to the midpoint of a concentration-inhibition curve. `N#Cc1ccc(S(=O)(=O)N(Cc2ccc(F)cc2)C[C@@H]2CCC(=O)N2)cc1` returned a chromatographic logD in [1] of 2.6. Further, the IC50 in series [2] is over 30 µM.
Compound `COc1cccc(S(=O)(=O)N(Cc2ccc(F)cc2)C[C@@H]2CCC(=O)N2)c1` returned a chromatographic logD in [1] of 3.1. Moreover, half-maximal inhibition in [2] (IC50) was put at 2 µM.
In series [1], `N#Cc1cccc(S(=O)(=O)N(Cc2ccccc2Cl)C[C@@H]2CCC(=O)N2)c1` had a chromatographic logD of 2.7. The compound further displayed a 50% inhibitory concentration (IC50) in [2] of over 10 µM.
Compound `N#Cc1ccccc1S(=O)(=O)N(Cc1ccc(F)cc1)C[C@@H]1CCC(=O)N1` registered a chromatographic logD in series [1] of 2.5. Moreover, in [2], the IC50 was over 30 µM.
In turn, `O=C1CC[C@@H](CN(Cc2ccc(F)cc2)S(=O)(=O)c2ccc(F)cc2)N1` showed a chromatographic logD in [1] of 3. Also, the half-inhibitory concentration (IC50) in [2] amounted to 4.1 µM.
In [1], `CN1C(=O)CC[C@H]1CN(Cc1ccc(F)cc1)S(=O)(=O)c1cccc(C#N)c1` yielded a chromatographic logD of 3.1. In [2], this compound registered an IC50 of 0.81 µM.
For the compound `O=C1CC[C@@H](CN(Cc2ccc(F)cc2)S(=O)(=O)c2cccc(F)c2)N1`, the chromatographic logD in [1] came out at 3.1. In addition, the IC50 in [2] was 7.2 µM.
Take `O=C1CC[C@@H](CN(Cc2ccc(F)cc2)S(=O)(=O)c2cccc(Cl)c2)N1`: the chromatographic logD in [1] amounted to 3.6. The compound also displayed a concentration for half-maximal inhibition (IC50) in series [2] of 0.8 µM.
`O=S(=O)(c1ccccc1F)N(Cc1ccccc1)Cc1ccc(F)cc1` registered a chromatographic logD in series [1] of 6.2. Also, in series [2], the 50% inhibitory concentration (IC50) was 4.8 µM.
With `N#Cc1cccc(S(=O)(=O)N(CC[C@@H]2CCC(=O)N2)Cc2ccc(F)cc2)c1`, the chromatographic logD in series [1] was 2.9. The midpoint of inhibition in [2], the IC50, lay at 2.7 µM.
In series [1], `N#Cc1cccc(S(=O)(=O)N(Cc2ccc(F)cc2)C[C@H]2CCC(=O)N2)c1` registered a chromatographic logD of 2.5. In series [2], this compound came in with a half-inhibitory concentration (IC50) of 8.7 µM.
The like results for `N#Cc1cccc(S(=O)(=O)N(Cc2cccc(Cl)c2)C[C@@H]2CCC(=O)N2)c1` were, in that order, 3 and 4.3 µM.
In series [1], `N#Cc1cccc(S(=O)(=O)N(Cc2ccc(F)cc2)C[C@@H]2CCC(=O)N2)c1` showed a chromatographic logD of 2.7. In series [2], this compound gave an IC50 of 2.6 µM.
One may read the bioavailability as dose-corrected exposure relative to a reference, in per cent. The low end stands for little systemic uptake, the high end for much systemic uptake. Regarding `CN1C(=O)CC[C@H]1CN(Cc1ccc(Cl)cc1)S(=O)(=O)c1cccc(C#N)c1`, the microsomal CLint in series [3] was 116 µL/min/mg. Also, the half-life in series [4] was 52.2 min; in [11] it was 31.8 min. In addition, the Time in the series with Oryctolagus cuniculus [5] is under 10 ms. In the series with Oryctolagus cuniculus [6], the “Cp(f)ss” value turned out to be 0.35 µM. In addition, the values for the bioavailability in series [7] and in series [8] were 45% and 44%, respectively. The clearance came out at 1.86 L/h/kg in [9] and 2.7 L/h/kg in series [10]. Also, the chromatographic logD in series [1] was found to be 3.6. Inhibition in series [2] was half-maximal at 0.21 µM (IC50). Moreover, the Activity entry in the series with Oryctolagus cuniculus [12] is on record as “Non-toxic”.
Compound `CCN1C(=O)CC[C@H]1CN(Cc1ccc(F)cc1)S(=O)(=O)c1cccc(C#N)c1` came in with a chromatographic logD in series [1] of 3.5. Besides, the IC50 in series [2] was determined as 2.8 µM.
The like results for `O=C1CC[C@@H](CN(Cc2ccc(F)cc2)S(=O)(=O)c2cccc3c2OCCO3)N1` were, in that order, 3 and over 10 µM.
`COc1ccc(S(=O)(=O)N[C@H]2CCCC[C@@H]2OCc2ccccc2)cc1` (racemic) yielded a half-inhibitory concentration (IC50) in series [13] of 28 µM.
For the compound `N#Cc1cccc(S(=O)(=O)N(Cc2ccc(Cl)cc2)C[C@@H]2CCC(=O)N2)c1`, in series [1], the chromatographic logD was found to be 3.1. The IC50 in series [2] amounted to 2.2 µM.
In series [1], `O=C1CC[C@@H](CN(Cc2ccc(F)cc2)S(=O)(=O)c2cc(Cl)cc(Cl)c2)N1` came in with a chromatographic logD of 4.4. Further, in series [2], 8.1 µM corresponded to half-maximal inhibition (IC50).
In series [13], `COc1ccc(S(=O)(=O)N(Cc2ccccc2)[C@H]2CCCC[C@@H]2O)cc1` (racemic) gave an IC50 of 2 µM. This compound also had a chromatographic logD in [1] of 4.6.
`CS(=O)(=O)c1cccc(S(=O)(=O)N(Cc2ccc(F)cc2)C[C@@H]2CCC(=O)N2)c1`: the chromatographic logD in [1] stood at 2. Besides, in series [2], the IC50 is 8.7 µM.
On to `N#Cc1cccc(S(=O)(=O)N(CCc2ccc(F)cc2)C[C@@H]2CCC(=O)N2)c1`, for which the chromatographic logD in [1] was 2.9. The compound also displayed an IC50 in [2] of over 10 µM.
In the case of `O=S(=O)(c1ccc(F)cc1)N(Cc1ccc(F)cc1)Cc1ccccn1`, in series [1], the chromatographic logD amounted to 4.7. In series [2], this compound had an IC50 of 2 µM.
In the case of `N#Cc1cccc(S(=O)(=O)N(Cc2ccc(F)cc2)C[C@@H]2CCCC(=O)N2)c1`, the chromatographic logD in series [1] amounted to 2.9. In series [2], half-maximal inhibition (IC50) was put at 7.6 µM.
Compound `NC(=O)c1ccc(N(Cc2ccc(F)cc2)S(=O)(=O)c2ccccc2F)cc1` yielded a chromatographic logD in series [1] of 3.4. The half-maximal inhibitory concentration (IC50) in [2] was 2.2 µM.
Regarding `O=C1CC[C@@H](CN(Cc2ccc(F)cc2)S(=O)(=O)c2ccccc2)N1`, the chromatographic logD in [1] amounted to 2.7. The compound also showed an IC50 in [2] of 8.8 µM.
